Data: US9440941B2, “Substituted chroman-6-yloxy-cycloalkanes and their use as pharmaceuticals” (SANOFI, priority 2013, dated 2016)

How the values were obtained:
[1] = molecular target: T1, human NCX1 (Homo sapiens, UniProt P32418); assay: Inhibition of Ca2+ influx into cells (NCX1 reverse mode), FLIPR Fluo-4 assay; type: cell-based; conditions: inhibition of NCX1 in reverse mode (Ca2+ influx into cells); read-out: NCX1rv IC50
T1 construct: expressed in transfected cells
Procedure, shortened: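 Ca2+ influx via reverse-mode exchange was evoked with gramicidin (20 µM final) after 45 min compound exposure at 16 °C in stably transfected CHO cells. Fluo-4 signal (520 nm) was followed on FLIPR at 2 s intervals. Max–min fluorescence gave percentage inhibition, from which IC50 was calculated.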

[2] = molecular target: T1, human NCX1; assay: Inhibition of Ca2+ efflux out of cells (NCX1 forward mode), FLIPR calcium assay; type: cell-based; conditions: CHO cells stably expressing human NCX1; Ca2+ efflux after Ionomycin; read-out: NCX1fw IC50 (inhibition of NCX1 in forward mode)
Description: The sodium/calcium exchanger NCX1 can transport calcium ions and sodium ions through the cell membrane. The transport is an exchange of Ca^2+ and Na^+ in two directions depending on membrane potential and ion gradients. At the first direction, named “forward mode” or “calcium export mode”, Ca^2+ is transported out of the cell and Na^+ is transported into the cell. At the other direction, named “reverse mode” or “calcium import mode”, the transport directions are vice versa. The effect of the compounds of the invention on NCX1 was determined in CHO cells stably expressing human NCX1 (gene symbol SLC8A1; cf. WO 2009/115238). The assay is based on the monitoring of intracellular Ca^2+ concentrations using a calcium-sensitive fluorescence dye which is detected by means of a FLIPR device (Fluorimetric Imaging Plate Reader, Molecular Devices).
Assay Technology—Forward Mode
The assay is based on the monitoring of intracellular Ca^2+ concentrations using the PBX Calcium Assay Kit from BD (Becton, Dickinson and Company) with calcium indicator dye 51-9000177BKa (BD, 640177). CHO cells expressing NCX1 were loaded with the dye, and after a preincubation period with the test compound, lonomycin (Calbiochem, 407950) was added. lonomycin is an ionophor for Ca^2+ ions mediating an increase of intracellular Ca^2+ ions. Consequently, intracellular Ca^2+ ions are exchanged against extracellular Na^+ ions (Ca^2+ efflux, forward mode). The decrease of intracellular Ca^2+ ions was detected by measuring the fluorescence of the calcium indicator dye at a wavelength of 520 nm by a FLIPR device.
Briefly, similarly as for the reverse mode, for the forward mode transport assay 18000 cells per well were seeded into a 96 well microplate (Corning COSTAR 3904) and incubated overnight in culture medium (cf. above). A total volume of 100 μl medium per well was used. For the preparation of the FLIPR assay, the culture medium was removed from the plates and 100 μl of assay buffer (133.8 mM NaCl (Sigma, S5886); 4.7 mM KCl (Sigma, P3911); 1.25 mM MgCl2 (Merck, 1.05833.0250); 3.5 mM CaCl2 (Merck, 1.02083.0250); 5 mM glucose (Sigma, G7021); 10 mM Hepes (Sigma, H4034); pH 7.4)) were added to each well in a washing step. Assay buffer was removed, and 100 μl of a solution of the test compound in assay buffer in different concentrations were added into the wells. Further, 100 μl of dye solution (0.09% (v/v) calcium indicator dye, 9.1% (v/v) signal enhancer (from PBX Calcium Assay Kit); in assay buffer) were added into each well. The plates were incubated in the dark at room temperature for 60 min. Meanwhile a 10 μM solution of lonomycin in assay buffer (additionally containing 0.05% fetal calf serum (cf. above); 4° C.) was prepared and stored in the wells of a 96 well microplate (96 well microplate, polypropylene, U-shape (Greiner Bio-One, 650201)). The fluorescence monitoring was performed at 60 measuring points with measurement intervals of 2 sec. After the fifth measuring point, 50 μl of the lonomycin solution were added to each well of the assay plate to give a final lonomycin concentration of 2 μM. For the determination of the IC50 values the minimal fluorescence value was subtracted from the maximal fluorescence value for the fifteenth to fifty-fifth measuring points. The calculation of the IC50 values via the percentage inhibitions of Ca^2+ efflux out of cells (forward mode) effected by the test compound was performed in Biost@t Speed 2.0. “NCX1fw IC50” in Table 2 means the IC50 value (in μM (micromol/liter)) for inhibition of NCX1 in forward mode.

Structure (SMILES) | IC50 [1] | IC50 [2]
NCC(=O)N[C@H]1CC[C@H](Oc2ccc3c(c2)CC[C@@H](c2ccccc2)O3)CC1 [Example 159, 2-Amino-N-[trans-4-((S)-2-phenyl-chroman-6-yloxy)-cyclohexyl]-acetamide] | 200 nM | 2500 nM
O=C(N[C@H]1CC[C@H](Oc2ccc3c(c2)CCC(c2ccccc2)O3)CC1)[C@@H]1CCCN1 (stereo partly drawn) [Example 180, (S)—N-[trans-4-(2-Phenyl-chroman-6-yloxy)-cyclohexyl]-pyrrolidine-2-carboxamide] | 800 nM | 10000 nM
Cc1ccccc1[C@@H]1CCc2cc(O[C@H]3CC[C@H](C(=O)NCCOP(=O)([O-])[O-])CC3)ccc2O1.[Na+].[Na+] [Example 303, Phosphoric acid mono-(2-{[trans-4-((S)-2-o-tolyl-chroman-6-yloxy)-cyclohexanecarbonyl]-amino}-ethyl) ester disodium salt] | 100 nM | 2500 nM

Results, then the compound that gave them:

IC50 [1] | IC50 [2] | Structure (SMILES)
150 nM | 500 nM | Cc1ccccc1[C@@H]1CCc2cc(O[C@H]3CC[C@H](C(=O)NCCO)CC3)ccc2O1 [Example 268, trans-4-((S)-2-o-tolyl-chroman-6-yloxy)-cyclohexanecarboxylic acid (2-hydroxy-ethyl)-amide]
400 nM | 2200 nM | Cc1ccccc1C1CCc2cc(OC3CCC(C(=O)NCc4ccno4)CC3)ccc2O1 (centres unmarked) [Example 158, N-(Isoxazol-5-ylmethyl)-4-(2-o-tolyl-chroman-6-yloxy)-cyclohexanecarboxamide]
600 nM | 1500 nM | Cc1ccccc1C1CCc2cc(O[C@H]3CC[C@H](N)CC3)ccc2O1.Cl (stereo partly drawn) [Example 156, trans-4-(2-o-Tolyl-chroman-6-yloxy)-cyclohexylamine]
3200 nM | 200 nM | Cc1ccccc1C1CCc2cc(OC3CCC(NCc4c(C)nn(C)c4C)CC3)ccc2O1 (centres unmarked) [Example 177, 4-(2-o-Tolyl-chroman-6-yloxy)-N-(1,3,5-trimethylpyrazol-4-ylmethyl)-cyclohexylamine]
